Consider 30 compounds from the Kinase Knowledgebase extract (Sharma et al. 2016).

The pIC50 is the IC50 on a negative log10 scale, so that one unit is a factor of ten. A higher pIC50 goes with a low IC50.

Structures are written as SMILES. pIC50: −log10 of the molar value.

For this assay, the target named is CDK2 (human) (UniProt P24941). In words: Enzyme Assay.
`O=C(Nc1ccc(-n2cncn2)cc1)c1ccc(C(=O)Nc2ccc3c(c2)OCO3)s1` had a pIC50 of at most 4.40.

Compound `CN(Cc1ccccc1)C(=O)c1ccc(C(=O)Nc2ccc(-n3cncn3)cc2)s1` had a pIC50 of at most 4.40.

The compound `COc1ccc(NC(=O)c2ccc(C(=O)Nc3ccc(N4CCOCC4)nc3)s2)c(C)c1` showed a pIC50 of at most 4.40.

As for `COc1ccc(C(=O)Nc2ccc(C(=O)N3CCC(c4ccncc4)C3)o2)c(C)c1` (stereo not given), the pIC50 was at most 4.40.

For the compound `Cn1cnc(CCNC(=O)c2ccc(C(=O)Nc3ccc(-n4cncn4)cc3)s2)c1`, the pIC50 was at most 4.40.

Regarding `O=C(Nc1ccc(C(=O)Nc2ccc(-n3cncn3)cc2)o1)c1ccncc1`, the pIC50 was at most 4.40.

In the case of `CN1CCC(NC(=O)c2ccc(C(=O)Nc3ccc(-n4cncn4)cc3)s2)CC1`, the pIC50 was at most 4.40.

In turn, `Cc1cc(CN2CCOCC2)ccc1NC(=O)c1ccc(C(=O)Nc2ccc(-n3cncn3)c(F)c2)s1` had a pIC50 of at least 6.00.

Regarding `O=C(Nc1ccc(-n2cncn2)c(F)c1)c1ccc(C(=O)Nc2ccccc2Oc2cccnc2)s1`, the pIC50 is at most 4.40.

In turn, `COc1ccc(NC(=O)c2ccc(C(=O)Nc3ccc(-c4nc[nH]n4)c(F)c3)o2)c(C)c1` gave a pIC50 of at least 6.00.

`O=C(Nc1ccc(-n2cncn2)cc1)c1ccc(C(=O)Nc2ccc3ncsc3c2)s1` gave a pIC50 of at most 4.40.

In turn, `Cc1ccccc1C(=O)Nc1ccc(C(=O)Nc2ccc(-n3cncn3)cc2)s1` showed a pIC50 of at least 6.00.

`O=C(NCCN1CCCC1)c1ccc(C(=O)Nc2ccc(-n3cncn3)cc2)s1`: the pIC50 is 4.40 to 6.00.

`Cc1ccccc1NC(=O)c1ccc(C(=O)Nc2ccc(-n3cncn3)cc2)o1` had a pIC50 of at least 6.00.

Compound `COc1ccc(NC(=O)c2ccc(C(=O)Nc3ccc(N4CCCCC4)cc3)s2)c(C)c1` showed a pIC50 of at most 4.40.

Take `COc1ccc(NC(=O)c2ccc(C(=O)Nc3ccc(F)cc3-n3cncn3)s2)c(C)c1`: the pIC50 is 4.40 to 6.00.

`COc1ccc(N(C)C(=O)c2ccc(C(=O)Nc3ccc(-n4cncn4)cc3)s2)cc1` showed a pIC50 of 4.40 to 6.00.

For the compound `Cc1cc(OCCN2CCN(C)CC2)ccc1NC(=O)c1ccc(C(=O)Nc2ccc(-n3cncn3)cc2)s1`, the pIC50 is at least 6.00.

`CN(C)C(=O)c1ccc(C(=O)Nc2ccc(-n3cncn3)c(F)c2)o1` showed a pIC50 of at most 4.40.

Regarding `Cc1cc(CN2CCOCC2)ccc1NC(=O)c1ccc(C(=O)Nc2ccc(-n3cncn3)cc2)s1`, the pIC50 was at least 6.00.

Consider `O=C(Nc1ccc(C(=O)Nc2ccc(-n3cncn3)cc2)o1)c1ccccc1`, for which the pIC50 was at most 4.40.

The compound `COc1ccc(NC(=O)c2ccc(C(=O)Nc3ccc(-c4nnc[nH]4)cc3)s2)c(C)c1` gave a pIC50 of at least 6.00.

Consider `Cc1cc(N2CCNCC2)ccc1NC(=O)c1ccc(C(=O)Nc2ccc(-n3cncn3)cc2)s1`, for which the pIC50 was at least 6.00.

In turn, `COc1cccc(NC(=O)c2ccc(C(=O)Nc3ccc(-n4cncn4)cc3)s2)c1` showed a pIC50 of at most 4.40.

On to `O=C(Nc1ccc(-n2cncn2)c(F)c1)c1ccc(C(=O)Nc2ccccc2OCc2ccncc2)s1`, for which the pIC50 is at most 4.40.

Compound `Cc1cnc(NC(=O)c2ccc(C(=O)Nc3ccc(-n4cncn4)cc3)s2)s1` showed a pIC50 of at most 4.40.

Compound `O=C(NCCN1CCNC1=O)c1ccc(C(=O)Nc2ccc(-n3cncn3)cc2)s1` gave a pIC50 of at most 4.40.

In turn, `COc1ccc(NC(=O)c2ccc(C(=O)Nc3ccc(-n4cncn4)cc3)o2)cc1` gave a pIC50 of at least 6.00.

The compound `CN1CCCC1CCNC(=O)c1ccc(C(=O)Nc2ccc(-n3cncn3)cc2)s1` (stereo not given) gave a pIC50 of at most 4.40.

`O=C(NCCc1ccccc1)c1ccc(C(=O)Nc2ccc(-n3cncn3)cc2)s1` had a pIC50 of at most 4.40.
